The results in this text go back to US20230159510A1, “NOVEL PRMT5 INHIBITORS” (AMGEN INC., priority 2020, published 2023).

Where two headings read alike, the source gives them in different places. Some results are limits rather than exact numbers.

In one experiment the test system is HCT116 MTAP null cells. Put plainly: HCT116 proliferation assay, MTAP null cells (CellTiter-Glo, 6 days). The experiment is classed as cell-based. Conditions: 144 h, read-out: Protif_ HCT116-MTAP null IC50. The gist of the method: (§1)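 Compound titrations (top dose 1 or 10 µM, 1:3 dilution, 8 or 9 concentrations) and a DMSO control were applied to cells cultured overnight beforehand in RPMI 1640 with 10% FBS at 37° C, 5% CO2; viability was scored from luminescence.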

The test system of another experiment is HCT116 WT cells. The experiment in a line: HCT116 proliferation assay, WT cells (CellTiter-Glo, 6 days). The format is cell-based. Conditions: Homo sapiens, HCT-116, 144 h, read-out: Prolif_HCT116-WT IC50. Summed up: as §1
For orientation: Cellular ATP, detected with luciferase, serves as a proxy for viable cell number.

The target in another experiment is PRMT5/MEP50 (Homo sapiens, UniProt O14744). Put plainly: MTase-Glo methyl transferase assay, Method A (Histone H4 peptide, 1 µM MTA, 24 h pre-incubation). Particulars: read-out: PRMT5 MTase Glo Ki (nM, Meth. A). Further details: made in house. The format is biochemical. The gist of the method: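 Luminescent SAH detection (MTase-Glo) after a 2 h room-temperature methylation of 1 µM biotinylated H4 (1-21) peptide by 10 nM PRMT5/MEP50 with 5 µM SAM, in 50 mM Tris pH 8.0.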
Sequence of PRMT5/MEP50 (O14744 whole entry): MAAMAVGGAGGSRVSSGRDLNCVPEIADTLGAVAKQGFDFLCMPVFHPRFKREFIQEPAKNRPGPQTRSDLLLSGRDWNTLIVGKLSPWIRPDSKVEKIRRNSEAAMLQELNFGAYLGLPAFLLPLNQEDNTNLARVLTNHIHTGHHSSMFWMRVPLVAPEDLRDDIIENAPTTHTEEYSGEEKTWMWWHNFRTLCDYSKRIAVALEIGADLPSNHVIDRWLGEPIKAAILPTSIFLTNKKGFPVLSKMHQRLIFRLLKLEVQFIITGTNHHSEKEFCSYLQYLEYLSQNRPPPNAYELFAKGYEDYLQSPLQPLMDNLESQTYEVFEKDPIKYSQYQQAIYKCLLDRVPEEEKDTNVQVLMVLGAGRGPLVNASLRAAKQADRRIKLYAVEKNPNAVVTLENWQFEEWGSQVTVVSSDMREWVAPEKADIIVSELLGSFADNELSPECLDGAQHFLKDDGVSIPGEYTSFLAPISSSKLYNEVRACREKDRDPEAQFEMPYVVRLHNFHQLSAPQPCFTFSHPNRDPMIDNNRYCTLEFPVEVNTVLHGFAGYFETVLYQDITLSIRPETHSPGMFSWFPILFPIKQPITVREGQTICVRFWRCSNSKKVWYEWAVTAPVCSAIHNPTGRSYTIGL
Sequence of PRMT5/MEP50 (Q9BQA1 whole entry partner): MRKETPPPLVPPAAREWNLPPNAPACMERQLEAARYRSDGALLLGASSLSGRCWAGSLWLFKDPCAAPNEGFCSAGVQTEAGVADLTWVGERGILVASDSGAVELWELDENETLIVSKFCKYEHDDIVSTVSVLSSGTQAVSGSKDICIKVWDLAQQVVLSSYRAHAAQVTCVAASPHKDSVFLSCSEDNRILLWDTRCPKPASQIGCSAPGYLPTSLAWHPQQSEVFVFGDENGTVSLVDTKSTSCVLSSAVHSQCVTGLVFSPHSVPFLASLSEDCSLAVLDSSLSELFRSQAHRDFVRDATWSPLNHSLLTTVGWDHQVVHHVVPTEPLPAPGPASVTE

The term IC50 denotes the concentration that gives 50% inhibition. As a reminder, the Ki is the dissociation constant of the complex between target and ligand, obtained from inhibition or displacement. For `Cc1cc2cc(C(=O)N(Cc3ccc(C(F)(F)F)cn3)[C@@H]3CCCc4nccnc43)ccc2nc1N` (single isomer, unassigned) [Example 521], the IC50 with HCT116 MTAP null cells (HCT116-MTAP null) is 12 nM; in the experiment on HCT116 WT cells it was 78 nM. For the same compound, the Ki at PRMT5/MEP50 is 0.01 nM.
Turning to `CC(=O)N1CCC(c2ccc(CN(C(=O)c3ccc4nc(N)c(C)cc4c3)[C@H](C)c3ncccn3)nc2)CC1` [Example 552, N-((5-(1-acetyl-4-piperidinyl)-2-pyridinyl)methyl)-2-amino-3-methyl-N-((1R)-1-(2-pyrimidinyl)ethyl)-6-quinolinecarboxamide], the results for the IC50 in the experiment on HCT116 MTAP null cells (HCT116-MTAP null) and in the experiment on HCT116 WT cells were 220 nM and 2550 nM, respectively. On PRMT5/MEP50, the Ki amounted to 0.32 nM.
For `Cc1cc2cc(C(=O)N(Cc3ccc(C(F)F)cn3)[C@@H]3CCC[C@H]3O)ccc2nc1N` [Example 364, 2-amino-N-((5-(difluoromethyl)pyridin-2-yl)methyl)-N-((1R,2R)-2-hydroxycyclopentyl)-3-methylquinoline-6-carboxamide], in that order: 227 nM, 6200 nM and 0.18 nM.
For `C[C@H](c1ncccn1)N(Cc1ccc(C(F)(F)F)cn1)C(=O)c1ccc2nc(N)c(Cl)cc2c1` [Example 347, 2-amino-3-chloro-N-((1R)-1-(2-pyrimidinyl)ethyl)-N-((5-(trifluoromethyl)-2-pyridinyl)methyl)-6-quinolinecarboxamide], in that order: 168 nM, 6200 nM and 0.17 nM.
In the case of `Cc1cc2cc(C(=O)N(Cc3ccc(C(F)(F)F)cn3)Cc3ncccc3F)ccc2nc1N` [Example 320, 2-amino-N-((3-fluoro-2-pyridinyl)methyl)-3-methyl-N-((5-(trifluoromethyl)-2-pyridinyl)methyl)-6-quinolinecarboxamide], the IC50 turned out to be 79 nM with HCT116 MTAP null cells and 3480 nM with HCT116 WT cells. The Ki at PRMT5/MEP50 was found to be 0.28 nM.
As for `Cc1cc2cc(C(=O)N(Cc3ccc(C(F)(F)F)cn3)[C@H](C)c3ncn(C)n3)c(F)cc2nc1N` (single isomer, unassigned) [Example 497], the IC50 is 35 nM in the experiment with HCT116 MTAP null cells (HCT116-MTAP null) and 462 nM with HCT116 WT cells. Also, on PRMT5/MEP50, the Ki came to 0.19 nM.
As for `Cc1cc2cc(C(=O)N(Cc3ccc(C(F)(F)F)nn3)[C@@H](c3ncccn3)C3CC3)ccc2nc1N` (single isomer, unassigned) [Example 518], the IC50 was 47 nM in the experiment with HCT116 MTAP null cells (HCT116-MTAP null) and 851 nM with HCT116 WT cells. For the same compound, the Ki at PRMT5/MEP50 stood at 0.11 nM.
Take `Cc1cc2cc(C(=O)N(Cc3ccc(C#N)cn3)Cc3ncccc3F)ccc2nc1N` [Example 327, 2-amino-N-((5-cyano-2-pyridinyl)methyl)-N-((3-fluoro-2-pyridinyl)methyl)-3-methyl-6-quinolinecarboxamide]: the values for the IC50 in the experiment on HCT116 MTAP null cells (HCT116-MTAP null) and with HCT116 WT cells were 304 nM and 8640 nM, respectively. Also, on PRMT5/MEP50, the Ki was 0.35 nM.
Take `Cc1cc2cc(C(=O)N(Cc3ccc(C#N)cn3)[C@@H]3CCCn4ncnc43)ccc2nc1N` (single isomer, unassigned) [Example 523]: the IC50 is 334 nM in the experiment on HCT116 MTAP null cells (HCT116-MTAP null) and 6380 nM in the experiment with HCT116 WT cells. For the same compound, at PRMT5/MEP50, the Ki is 0.35 nM.
`Cc1cc2cc(C(=O)N(Cc3ccc(C(F)(F)F)nn3)[C@@H]3CCOc4ccc(F)nc43)ccc2nc1N` [Example 515, (R)-2-amino-N-(6-fluoro-3,4-dihydro-2H-pyrano[3,2-b]pyridin-4-yl)-3-methyl-N-((6-(trifluoromethyl)pyridazin-3-yl)methyl)quinoline-6-carboxamide]: the IC50 with HCT116 MTAP null cells (HCT116-MTAP null) is 23 nM; in the experiment on HCT116 WT cells, 480 nM. Moreover, the Ki on PRMT5/MEP50 came out at 0.02 nM.
For `CCOc1ccc(CN(C(=O)c2ccc3nc(N)c(C)cc3c2)[C@H](C)c2ncccn2)nn1` [Example 377, 2-amino-N-((6-ethoxy-3-pyridazinyl)methyl)-3-methyl-N-((1R)-1-(2-pyrimidinyl)ethyl)-6-quinolinecarboxamide], in that order: 61 nM, 2560 nM and 0.07 nM.
With `Cc1cc2cc(C(=O)N(Cc3ccc(C(F)(F)F)cn3)[C@@H]3CCCn4ncnc43)ccc2nc1N` (single isomer, unassigned) [Example 464], the results for the IC50 in the experiment on HCT116 MTAP null cells (HCT116-MTAP null) and in the experiment with HCT116 WT cells were 71 nM and 1510 nM, respectively. Besides, the Ki on PRMT5/MEP50 came out at 0.1 nM.
For `Cc1cc2cc(C(=O)N(Cc3ccc(Br)nn3)[C@@H]3CCC[C@H]3O)ccc2nc1N` [Example 366, 2-amino-N-((6-bromo-3-pyridazinyl)methyl)-N-((1R,2R)-2-hydroxycyclopentyl)-3-methyl-6-quinolinecarboxamide], in that order: 218 nM, 7010 nM and 0.18 nM.
`Cc1cc2cc(C(=O)N(Cc3ccc(C(F)(F)F)cn3)[C@H](C)c3ncc(F)cn3)ccc2nc1N` (single isomer, unassigned) [Example 528]: the IC50 in the experiment with HCT116 MTAP null cells (HCT116-MTAP null) came to 58 nM; in the experiment with HCT116 WT cells, 899 nM. The Ki on PRMT5/MEP50 amounted to 0.14 nM.
As to `COc1nc(C(F)(F)F)ccc1CN(C(=O)c1ccc2nc(N)c(C)cc2c1)[C@H](C)c1ncccn1` (single isomer, unassigned) [Example 469], the IC50 was determined as 33 nM in the experiment with HCT116 MTAP null cells (HCT116-MTAP null) and 592 nM in the experiment on HCT116 WT cells. The Ki on PRMT5/MEP50 was 0.03 nM.
Consider `Cc1cc2cc(C(=O)N(Cc3ccc(N4CCC(F)(F)C4)cn3)[C@H](C)c3ncccn3)ccc2nc1N` [Example 358, 2-amino-N-((5-(3,3-difluoro-1-pyrrolidinyl)-2-pyridinyl)methyl)-3-methyl-N-((1R)-1-(2-pyrimidinyl)ethyl)-6-quinolinecarboxamide], for which the IC50 turned out to be 53 nM in the experiment on HCT116 MTAP null cells (HCT116-MTAP null) and 1370 nM in the experiment with HCT116 WT cells. Further, the Ki on PRMT5/MEP50 was determined as 2.5 nM.
`Cc1cc2cc(C(=O)N(Cc3ccc(C(F)(F)F)cn3)[C@@H]3CCCC[C@H]3O)ccc2nc1N` [Example 361, 2-amino-N-((1R,2R)-2-hydroxycyclohexyl)-3-methyl-N-((5-(trifluoromethyl)-2-pyridinyl)methyl)-6-quinolinecarboxamide]: the values for the IC50 with HCT116 MTAP null cells (HCT116-MTAP null) and with HCT116 WT cells were 116 nM and 3220 nM, respectively. In addition, the Ki at PRMT5/MEP50 is 2.1 nM.
For `Cc1cc2cc(C(=O)N(Cc3ccc(C#N)cn3)[C@H](C)c3ncccn3)c(F)cc2nc1N` [Example 404, 2-amino-N-((5-cyano-2-pyridinyl)methyl)-7-fluoro-3-methyl-N-((1R)-1-(2-pyrimidinyl)ethyl)-6-quinolinecarboxamide], in that order: 90 nM, 3160 nM and 1.68 nM.
As to `Cc1cc2cc(C(=O)N(Cc3ccc(C(F)F)cn3)[C@H](C)c3cnn(C)n3)ccc2nc1N` (single isomer, unassigned) [Example 532], the IC50 in the experiment on HCT116 MTAP null cells (HCT116-MTAP null) turned out to be 45 nM; in the experiment on HCT116 WT cells, 894 nM. Besides, at PRMT5/MEP50, the Ki is 0.02 nM.
For `Cc1cc2cc(C(=O)N(Cc3ccc(Br)nn3)[C@H](C)c3nccs3)ccc2nc1N` [Example 514, 2-amino-N-((6-bromo-3-pyridazinyl)methyl)-3-methyl-N-((1R)-1-(1,3-thiazol-2-yl)ethyl)-6-quinolinecarboxamide], the results for the IC50 in the experiment with HCT116 MTAP null cells (HCT116-MTAP null) and in the experiment with HCT116 WT cells were 28 nM and 625 nM, respectively. Moreover, the Ki on PRMT5/MEP50 turned out to be 0.002 nM.
`Cc1cc2cc(C(=O)N(Cc3ccc(C(F)(F)F)cn3)C[C@@H](C)C(F)(F)F)ccc2nc1N` (single isomer, unassigned) [Example 457]: the IC50 in the experiment with HCT116 MTAP null cells was 717 nM; in the experiment on HCT116 WT cells, more than 10000 nM. The Ki on PRMT5/MEP50 turned out to be 0.78 nM.
